Measured values: patent US7981896B2 (Athersys, Inc., priority 2006, dated 2011)

Target: T1, human histamine H3 receptor (Homo sapiens, UniProt Q9Y5N1)
T1 construct: endogenous in cells; host or cells: HT1080-Gqαi5 RAGE clone (RAGE-H3), human fibrosarcoma line; integrated RAGE vector pFG8-HH3 supplies exon 1, the cell's own gene supplies the other exons
Assay: Competition radioligand binding assay with [125I]iodoproxyfan on membranes of RAGE-H3 (HT1080-Gqαi5) cells expressing human H3 receptor
Conditions: ~0.15 nM [125I]iodoproxyfan, 1.5 hrs at room temperature, head does not name the quantity (apparent Ki by Cheng-Prussof)
Description: Representative compounds of the present invention that were prepared by the procedures of Examples 1-83 were evaluated in binding assays against cells expressing human H3 receptor by the following procedure.
[^125I]iodoproxyfan (2000 Ci/mmol) was obtained from Amersham Bioscience (Piscataway, N.J.). All other chemicals were either from Sigma-Aldrich (St. Louis, Mo.) or Tocris Cookson Inc. (Ellisville, Mo.).
The human histamine H3 receptor was stably expressed in HT1080 cells containing the chimeric G-protein, Gq[…]i5 (Coward et al., Anal Biochem 1999; 270:242-8). HT1080-Gqαi5 cells were grown in alpha-modified MEM containing 10% fetal bovine serum and 7 μg/ml blasticidin at 37° C. in 5% CO2/95% atmosphere. Cells (4.8×10^9) were irradiated with 50 rads from a ^137Cs source and the pFG8-HH3 RAGE (Random Activation of Gene Expression; see Harrington et al., Nature Biotechnology. 2001; 19:440-45) vector was subsequently integrated into the cells via electroporation (250V, 600 μF, 50Ω). The RAGE vector pFG8-HH3 contained cDNA sequence coding for the first exon (83 amino acids) of human H3 receptor. After electroporation, cells were plated in T75 flasks and grown in alpha-modified MEM. The culture medium was replaced 48 hrs after electroporation with alpha-modified MEM, 10% fetal bovine serum, 500 μg/ml hygromycin B and 3 μg/ml puromycin. Medium was replaced every four days during cell expansion. To identify RAGE activated cells expressing the H3 receptor, pools of approximately 10,000 colonies (5×10^7-1.5×10^8 cells total) were screened by PCR for the desired gene product (using primers specific to the RAGE vector and exon 2 of the H3 receptor). […] Positive 100 cells/well pools were identified by PCR, confirmed by sequencing, and subsequently subcloned to 0.8 cells/well. Once clones expressing the H3 receptor were identified by PCR analysis, assays (FLIPR or radioligand binding) were performed to confirm that the activated gene produced functional protein. The protein expression in the initial clones obtained from the RAGE library was increased by growth in the presence of methotrexate. Since the integrated RAGE vector contains the DHFR gene, such treatment selects for cells that have amplified the genetic locus containing the RAGE insert. Subclones obtained after methotrexate amplification were tested for functional activity in FLIPR assays to identify the clone that was most suitable for HTS. The final HT1080-Gqαi5 RAGE clone (RAGE-H3) expressing the human histamine H3 receptor was grown in alpha-modified MEM containing 10% fetal bovine serum, 3 μg/ml puromycin, 500 μg/ml hygromycin B, 3.2 μM methotrexate at 37° C. in 5% CO2/95% atmosphere.
RAGE-H3 cells (10^9) were washed twice with cold PBS, scraped off the plates, and centrifuged at 1000×g for 5 minutes. Cells were resuspended in ice-cold 10 mM Tris HCl, pH 7.4, containing 5 mM EDTA and protease inhibitor cocktail tablets (Roche Molecular Biochemicals). After incubating on ice for 10 min, the cells were homogenized with a dounce homogenizer or a polytron tissue grinder, and centrifuged at 1000×g for 10 min at 4° C. The resulting supernatant was centrifuged at 32,000×g for 30 min at 4° C. The membrane pellets were resuspended in 50 mM Tris HCl, pH 7.4, and stored at −80° C. until use. Protein concentration was determined by the Bradford method (Bio-Rad Laboratories, CA).
Binding assays were carried out in 96-well polypropylene plates in 50 mM Tris HCl, pH 7.4, containing 1 mM EDTA. Reaction mixtures contained 100 μl of membrane suspension, 50 μl of 4% DMSO, and 50 μl of increasing amounts of [^125I]iodoproxyfan (final concentration 0.0005-1.8 nM for human H3 receptor saturation binding assay). Nonspecific binding was defined by adding 10 μM clobenpropit to the reaction mixtures. […]

T1 sequence (Q9Y5N1 whole entry): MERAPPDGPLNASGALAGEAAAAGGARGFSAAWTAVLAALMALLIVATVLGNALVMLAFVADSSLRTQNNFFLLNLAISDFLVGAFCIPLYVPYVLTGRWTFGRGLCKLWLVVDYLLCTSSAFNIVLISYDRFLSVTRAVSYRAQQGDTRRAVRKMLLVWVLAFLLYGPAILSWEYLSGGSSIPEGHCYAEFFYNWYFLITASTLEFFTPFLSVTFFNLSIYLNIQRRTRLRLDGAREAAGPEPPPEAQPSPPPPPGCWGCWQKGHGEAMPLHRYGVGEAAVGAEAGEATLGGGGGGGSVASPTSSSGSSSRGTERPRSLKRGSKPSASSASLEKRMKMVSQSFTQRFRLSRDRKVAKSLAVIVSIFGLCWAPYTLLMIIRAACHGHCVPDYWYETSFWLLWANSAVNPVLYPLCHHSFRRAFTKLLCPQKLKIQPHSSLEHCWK

Row | Molecule | Ki [nM]
1 | 3-Methyl-1-[4-(3-piperidin-1-yl-propoxy)-phenyl]-1,4,5,6-tetrahydro-cyclopentapyrazole [Example 59] | < 10
2 | 3-Phenyl-1-[4-(3-pyrrolidin-1-ylpropoxy)phenyl]-4,5,6,7-tetrahydro-1H-indazole [Example 43] | < 1000
3 | 3-Phenyl-1-[4-(3-pyrrolidin-1-ylpropoxy)phenyl]-4,5,6,7-tetrahydro-2H-indazole [Example 44] | < 100
4 | Cc1nn(-c2ccc(OCCCN3CCCC3)cc2)c2c1CC[C@@H]1CCCC[C@@H]21 (relative stereo) [Example 5, 3-Methyl-1-[4-(3-pyrrolidin-1-ylpropoxy)phenyl]-4,5,5a,6,7,8,9,9a-octahydro-1H-benzo[g]indazole] | < 1
5 | Cc1c2c(nn1-c1ccc(OCCCN3CCCC3)cc1)[C@H]1CCCC[C@@H]1CC2 (relative stereo) [Example 6, 3-Methyl-2-[4-(3-pyrrolidin-1-ylpropoxy)phenyl]-4,5,5a,6,7,8,9,9a-octahydro-2H-benzo[g]indazole] | < 10
6 | Cc1nn(-c2ccc(OCCCN3CCCC3)cc2)c2c1CCc1ccccc1-2 [Example 1, 3-Methyl-1-[4-(3-pyrrolidin-1-ylpropoxy)phenyl]-4,5-dihydro-1H-benzo[g]indazole] | < 10
7 | Cc1nn(-c2ccc(OCCCN3CCC[C@H]3C)cc2)c2c1CCc1ccccc1-2 [Example 2, 3-Methyl-1-{4-[3-(2R-methylpyrrolidin-1-yl)propoxy]phenyl}-4,5-dihydro-1H-benzo[g]indazole] | < 10
8 | Cc1nn(-c2ccc(OCCCN3CCOCC3)cc2)c2c1CCc1ccccc1-2 [Example 3, 3-Methyl-1-[4-(3-morpholin-1-ylpropoxy)phenyl]-4,5-dihydro-1H-benzo[g]indazole] | < 10
9 | FC(F)(F)c1cc(/C=C/c2ccccc2)n(-c2ccc(OCCCN3CCCC3)cc2)n1 [Example 4, 1-[4-(3-Pyrrolidin-1-ylpropoxy)phenyl]-5-styryl-3-trifluoromethyl-1H-pyrazole] | < 100
10 | COc1ccc2c(c1)-c1c(c(C)nn1-c1ccc(OCCCN3CCCC3)cc1)CC2 [Example 7, 8-Methoxy-3-methyl-1-[4-(3-pyrrolidin-1-ylpropoxy)phenyl]-4,5-dihydro-1H-benzo[g]indazole] | < 100
11 | Cc1cc(C(=O)NC2CCCCC2)n(-c2ccc(OC3CCN(C4CCCC4)CC3)cc2)n1 [Example 10, 2-[4-(1-Cyclopentyl-piperidin-4-yloxy)phenyl]-5-methyl-2H-pyrazole-3-carboxylic acid cyclohexylamide] | < 10
12 | Cc1cc(C(=O)NC2CCCCC2)n(-c2ccc(OC3CCN(C4CCCCC4)CC3)cc2)n1 [Example 11, 2-[4-(1-Cyclohexylpiperidin-4-yloxy)phenyl]-5-methyl-2H-pyrazole-3-carboxylic acid cyclohexylamide] | < 10

More lines, now with the values ahead:

Row | Ki [nM] | Molecule
13 | < 10 | Cc1cc(C(=O)NC2CCCCC2)n(-c2ccc(OC3CCN(C(C)C)CC3)cc2)n1 [Example 12, 2-[4-(1-Isopropylpiperidin-4-yloxy)phenyl]-5-methyl-2H-pyrazole-3-carboxylic acid cyclohexylamide]
14 | < 10 | Cc1cc(C(=O)NC2CCCCC2)n(-c2ccc(OC3CCN(C4CCC4)CC3)cc2)n1 [Example 13, 2-[4-(1-Cyclobutylpiperidin-4-yloxy)phenyl]-5-methyl-2H-pyrazole-3-carboxylic acid cyclohexylamide]
15 | < 10 | Cc1cc(CO)n(-c2ccc(OCCCN3CCCC3)cc2)n1 [Example 14, {5-Methyl-2-[4-(3-pyrrolidin-1-ylpropoxy)phenyl]-2H-pyrazol-3-yl}methanol]
16 | < 100 | c1ccc2nn(-c3ccc(OCCCN4CCCC4)cc3)cc2c1 [Example 18, 2-[4-(3-Pyrrolidin-1-ylpropoxy)phenyl]-2H-indazole]
17 | < 10 | c1ccc2c(c1)cnn2-c1ccc(OCCCN2CCCC2)cc1 [Example 20, 1-[4-(3-Pyrrolidin-1-ylpropoxy)phenyl]-1H-indazole]
